In article PMC8509428, “The Phenoxyalkyltriazine Antagonists for 5-HT6 Receptor with Promising Procognitive and Pharmacokinetic Properties In Vivo in Search for a Novel Therapeutic Approach to Dementia Diseases” (International Journal of Molecular Sciences, 2021):
Where “and” joins values, the source holds several entries; their conditions need not be identical. Equal values may be shown once. Read-outs that look alike come from different tables or passages of the source.

Legend:
human 5-HT6R = details: ± SD; read-out: Ki 5-HT6 (converted); cited from earlier work
[1] = Metabolic stability in rat liver microsomes; assay type: in vitro ADME
Procedure: The tested 5-HT6R ligands (50 µM) were incubated in the presence of RLMs (1 mg/mL) in 10 mM Tris–HCl buffer (37 °C). The LC/MS analyses with additional MS ion fragmentation of the products and substrates were performed to determine the most probable structures of 5-HT6R ligands’ metabolites. LC/MS Waters ACQUITY™ TQD system with the TQ Detector (Waters, Milford, CT, USA).

rats = test: Elevated plus-maze (EPM) test; assay type: in vivo, rat; details: for Open Arms % of entries / Open Arms % of time / Open Arms Distance / Open Arms Entries / Open Arms Time: mean ± SEM
Source text: The testing procedure was based on a method described by. Plus-maze apparatus (an automated device produced by Campden Instruments Ltd. (Leicestershire, UK) made of durable, high density, non-porous black plastic, elevated to a height of 50 cm, consisted of two open arms (50 × 10 cm) and two closed arms (50 × 10 cm, and 30 cm high walls), arranged so that the two arms of each type were opposite each other. The floor of the plus-maze was made of infrared transparent material what means that there are no visible sensors. Plus-maze apparatus was connected to PC software by control chassis. The experiments were conducted in a darkened room, only the center of the maze was illuminated with low-intensity light (30 lux measured on the maze level). Each rat was gently placed in the center of the plus-maze, facing one of the closed arms, immediately after a 5-min adaptation period in a plastic black box (60 × 60 × 35 cm), to increase the overall activity in the EPM. During a 5-min test period, automated Motor Monitor System recorded the number of entries into the closed and open arms and the time spent in either type of arms. The device counted an effective arm-entry when the four paws of a rat were into any arm. The maze was thoroughly cleaned after each trial. The EPM test is an “unconditional” anxiety-like test based on rodents’ natural aversion to heights and open space.

hepatoma HepG2 cell line = test: Hepatotoxicity, HepG2 viability (MTS); assay type: cell-based; details: 0.1–100 µM, 72 h
Procedure: Cells were grown under previously described conditions. […] The cells’ viability was determined by CellTiter 96® AQueous Non-Radioactive Cell Proliferation Assay (MTS), which was purchased from Promega® (Madison, WI, USA). The absorbance was measured using a microplate reader EnSpire (PerkinElmer, Waltham, MA USA) at 490 nm. All compounds were tested in quadruplicate.

[2] = Pharmacokinetics and tissue distribution in rats; assay type: in vivo, rat; details: for Kp: intraperitoneal
Procedure: To assess pharmacokinetic profile and tissue penetration of 2 and 3, the male Wistar rats were a single intraperitoneal (i.p.) injected with these compounds dissolved in tween (vehicle volume 1 mL/kg) at a dose of 0.3 mg/kg, determined in behavioral studies. The animals were killed by decapitation under deep anesthesia (i.p. injection of 50 mg/kg ketamine and 7.5 mg/kg xylazine) at 5, 15, 30, 60, 120 and 240 min after compounds administration (four animals per time point) and blood samples (approximately 5–6 mL) were collected into tubes. Moreover, five tissues (i.e., brain, heart, lungs, kidneys and liver) were harvested, rinsed with cold saline, and the wet weights determined. Blood was allowed to clot for 15–20 min at room temperature and then centrifuged (3000 rpm for 10 min). The obtained serum and tissues were stored frozen at −80 °C until analysis.
The concentrations of both test compounds in serum and tissue homogenates were measured by a reverse-phase high-performance liquid chromatography method with ultraviolet detection (HPLC/UV). […] The mobile phase consisted of methanol/10 mM potassium dihydrogen phosphate buffer, pH 4.6/acetonitrile (51/40/9, v/v/v). The isocratic separation was performed at 1.0 mL/min constant flow-rate with column temperature maintained at 38 °C. The detection wavelength was set at 206 nm for 2 and at 215 nm for 3. […] EZChrome Elite v. 3.3.2 software (VWR, Darmstadt, Germany) was used for data acquisition.
Before analysis, tissue samples were thawed, placed in four volumes (w/v) of phosphate-buffered saline (PBS, pH 7.4) and homogenized using a MICCRA D-1 homogenizer (ART Prozess- & Labortechnik GmbH & Co., Heitersheim, Germany). To isolate 2 or 3, 500 µL of rat serum or tissue homogenate containing this compound were mixed with a 20-μL volume of IS solution (50 ng/mL or 200 ng/g in methanol). As an IS for compound 2 quantification, compound 3 was used and vice versa.
The samples were alkalized with 50 μL of 4 M sodium hydroxide solution, vortex-mixed, and extracted with 1 mL of ethyl acetate/hexane (30/70, v/v) mixture on a shaker (VXR Vibrax, IKA, Legnica, Poland) for 20 min. After centrifugation (Eppendorf, Mini Spin Plus, Hamburg, Germany), the organic layers were transferred into new tubes containing 100 μL of methanol and 0.1 M sulfuric acid (10/90, v/v) mixture. Then, the samples were shaken and centrifuged again. Finally, 20–90 μL of each acidic layer was injected into the HPLC system.
Other pharmacokinetic parameters were determined on subjecting the concentration–time data to non-compartmental analysis using Phoenix WinNonlin 8.2 software (Pharsight Corporation, a Certara Company, Princeton, NJ, USA).

[3] = estimated from MS spectra supported by in silico data
[4] = rat serum, 0.3 mg/kg i.p., 0.3 mg/kg

For `CCC(Oc1ccccc1)c1nc(N)nc(N2CCN(C)CC2)n1` (racemic) [Compound 3, (RS)-4-(4-methylpiperazin-1-yl)-6-(1-phenoxypropyl)-1,3,5-triazin-2-amine], the Ki (human 5-HT6R) is given as 0.021 µM, the “parent compound remaining in the reaction mixture (Area%)” value ([1]; RLMs, 120 min incubation) is given as 95.7% and the “Metabolic Pathway, metabolite M1” value [1, 3] is given as “decomposition and triple hydroxylation”. The “Metabolic Pathway, metabolite M2” value [1, 3] was “hydroxylation”, the “Open Arms % of entries” value (rats; 0.3 mg/kg i.p.) was 28.54 ± 6.70% and the “Open Arms % of time” value (rats; 0.3 mg/kg i.p.) was 9.84 ± 1.50%. For the same molecule, the “Open Arms Distance” value (rats; 0.3 mg/kg i.p.) was 340 ± 59 cm, the “Open Arms Entries” value (rats; 0.3 mg/kg i.p.) was 5.28 ± 0.42 and the “Open Arms Time” value (rats; 0.3 mg/kg i.p.) was 24.27 ± 3.41 s. The “Open Arms % of entries” value (rats; 1 mg/kg i.p.) was 33.64 ± 2.70%, the “Open Arms % of time” value (rats; 1 mg/kg i.p.) was 18.30 ± 4.10% and the “Open Arms Distance” value (rats; 1 mg/kg i.p.) was 646 ± 145 cm. For the same molecule, the “Open Arms Entries” value (rats; 1 mg/kg i.p.) was 8.43 ± 1.36, the “Open Arms Time” value (rats; 1 mg/kg i.p.) was 44.24 ± 9.71 s and the “Open Arms % of entries” value (rats; 3 mg/kg i.p.) was 24.39 ± 7.60%. The “Open Arms % of time” value (rats; 3 mg/kg i.p.) was 7.03 ± 2.00%, the “Open Arms Distance” value (rats; 3 mg/kg i.p.) was 231 ± 87 cm and the “Open Arms Entries” value (rats; 3 mg/kg i.p.) was 4.17 ± 1.10. For the same molecule, the “Open Arms Time” value (rats; 3 mg/kg i.p.) was 19.00 ± 5.50 s, the “anxiolytic-like activity in EPM test” value (rats; i.p., 60 min before test) was “did not show anxiolytic-like activity” and the “hepatotoxicity effect, HepG2 viability” value (hepatoma HepG2 cell line) was “no hepatotoxicity effect”. The “Kp, brain” value ([2]; AUC0-t tissue / AUC0-t serum) was 2.03, the “Kp, liver” value ([2]; AUC0-t tissue / AUC0-t serum) was 10.54 and the MRT ([2]; male, Wistar, ip, rat serum, 0.3 mg/kg i.p.) was 79.3 min. It also gave a Kp ([2]; male, Wistar, rat, brain (vs serum), 0.3 mg/kg, AUC0-t tissue / AUC0-t serum, read-out: Kp, brain) of 2.63, a Tmax ([2]; male, Wistar, rat, brain, ip, 0.3 mg/kg, rat, 0.3 mg/kg i.p., read-out: Tmax, brain (converted)) of 5 min and a half-life ([2]; male, Wistar, rat, brain, ip, 0.3 mg/kg, rat, 0.3 mg/kg i.p., read-out: elimination half-life, brain tissue) of 112 min. The Kp ([2]; male, Wistar, rat, heart / serum, 0.3 mg/kg, AUC0-t tissue / AUC0-t serum, read-out: Kp, heart) was 2.49, the Tmax ([2]; male, Wistar, rat, heart, ip, 0.3 mg/kg, rat, 0.3 mg/kg i.p., read-out: Tmax, heart (converted)) was 5 min and the Kp ([2]; male, Wistar, rat, kidneys (vs serum), 0.3 mg/kg, AUC0-t tissue / AUC0-t serum, read-out: Kp, kidneys) was 6.03. For the same molecule, the Tmax ([2]; male, Wistar, rat, kidneys, ip, 0.3 mg/kg, rat, 0.3 mg/kg i.p., read-out: Tmax, kidneys (converted)) was 15 min, the Kp ([2]; male, Wistar, rat, liver (vs serum), 0.3 mg/kg, AUC0-t tissue / AUC0-t serum, read-out: Kp, liver) was 10.5 and the Tmax ([2]; male, Wistar, rat, liver, ip, 0.3 mg/kg, rat, 0.3 mg/kg i.p., read-out: Tmax, liver (converted)) was 5 min. For the same molecule, the Kp ([2]; male, Wistar, rat, lungs / serum, 0.3 mg/kg, AUC0-t tissue / AUC0-t serum, read-out: Kp, lungs) was 6.41, the Tmax ([2]; male, Wistar, rat, lungs, ip, 0.3 mg/kg, rat, 0.3 mg/kg i.p., read-out: Tmax, lungs (converted)) was 5 min and the CL/F ([2]; male, Wistar, rat, serum, ip, 0.3 mg/kg, rat serum, 0.3 mg/kg i.p., read-out: CL/F (converted)) was 587 mL/min/kg. It also gave a Tmax ([2]; male, Wistar, rat, serum, ip, 0.3 mg/kg, rat, 0.3 mg/kg i.p., read-out: Tmax, serum (converted)) of 5 min, a half-life ([2]; male, Wistar, rat, serum, ip, 0.3 mg/kg, rat, 0.3 mg/kg i.p., read-out: t1/2λz, serum) of 76.7 min and a Cmax ([2]; male, Wistar, serum, ip, rat, 0.3 mg/kg i.p., mean ± SD) of 6.32 ± 5.03 ng/mL. For the same molecule, the AUC(0-t) ([2]; male, Wistar, serum, ip, rat, 0.3 mg/kg i.p., mean ± SD, read-out: AUC0-t, serum (converted)) was 7.07 ng·h/mL, the AUC(0-inf) ([2]; male, Wistar, serum, ip, rat, 0.3 mg/kg i.p., mean ± SD, read-out: AUC0-∞, serum (converted)) was 8.53 ng·h/mL and the CL/F [2, 4] was 586 ± 298.7 mL/min/kg. For the same molecule, the Vz/F [2, 4] was 65 L/kg and 64.81 ± 21.78 L/kg, the “AUC0-t, heart” value ([2]; rat, 0.3 mg/kg i.p.) was 1057.37 ± 285.41 ng·min/mL or ng·min/g and the “AUC0-t, kidneys” value ([2]; rat, 0.3 mg/kg i.p.) was 2557.08 ± 1084.42 ng·min/mL or ng·min/g. The “AUC0-t, lungs” value ([2]; rat, 0.3 mg/kg i.p.) was 2715.09 ± 1000.42 ng·min/mL or ng·min/g, the “Cmax, heart” value ([2]; rat, 0.3 mg/kg i.p.) was 21.83 ± 17.16 ng/mL or ng/g and the “Cmax, kidneys” value ([2]; rat, 0.3 mg/kg i.p.) was 41.25 ± 8.41 ng/mL or ng/g. For the same molecule, the “Cmax, liver” value ([2]; rat, 0.3 mg/kg i.p.) was 129.62 ± 106.23 ng/mL or ng/g, the “Cmax, lungs” value ([2]; rat, 0.3 mg/kg i.p.) was 73.65 ± 63.94 ng/mL or ng/g and the “AUC0-t, brain” value ([2]; rat, 0.3 mg/kg i.p., 0.3 mg/kg) was 859.1 ng·min/mL or ng·min/g and 859.08 ± 312.87 ng·min/mL or ng·min/g. For the same molecule, the “AUC0-t, liver” value ([2]; rat, 0.3 mg/kg i.p., 0.3 mg/kg) was 4467.2 ng·min/mL or ng·min/g and 4467.18 ± 2249.99 ng·min/mL or ng·min/g, the “Cmax, brain” value ([2]; rat, 0.3 mg/kg i.p., 0.3 mg/kg) was 11.35 ± 6.93 ng/mL or ng/g and the “t1/2λz, serum” value ([2]; rat, 0.3 mg/kg i.p., 0.3 mg/kg) was 77 min and 76.65 ± 18.07 min.
